Among the data in patent US11104661B1, “Inhibiting human integrin (α-4) (β-7)” (Morphic Therapeutic, Inc., priority 2019, dated 2021) are IC50 values, retold here.

By IC50 is commonly meant the point on the concentration scale where inhibition reaches its midpoint. Higher therefore signals weaker potency in that assay.

Molecules are shown by their SMILES.

The first assay deals with T1, integrin α4β7 (Homo sapiens, UniProt P13612+P26010).
T1 sequence (P13612 35-977 limits assumed): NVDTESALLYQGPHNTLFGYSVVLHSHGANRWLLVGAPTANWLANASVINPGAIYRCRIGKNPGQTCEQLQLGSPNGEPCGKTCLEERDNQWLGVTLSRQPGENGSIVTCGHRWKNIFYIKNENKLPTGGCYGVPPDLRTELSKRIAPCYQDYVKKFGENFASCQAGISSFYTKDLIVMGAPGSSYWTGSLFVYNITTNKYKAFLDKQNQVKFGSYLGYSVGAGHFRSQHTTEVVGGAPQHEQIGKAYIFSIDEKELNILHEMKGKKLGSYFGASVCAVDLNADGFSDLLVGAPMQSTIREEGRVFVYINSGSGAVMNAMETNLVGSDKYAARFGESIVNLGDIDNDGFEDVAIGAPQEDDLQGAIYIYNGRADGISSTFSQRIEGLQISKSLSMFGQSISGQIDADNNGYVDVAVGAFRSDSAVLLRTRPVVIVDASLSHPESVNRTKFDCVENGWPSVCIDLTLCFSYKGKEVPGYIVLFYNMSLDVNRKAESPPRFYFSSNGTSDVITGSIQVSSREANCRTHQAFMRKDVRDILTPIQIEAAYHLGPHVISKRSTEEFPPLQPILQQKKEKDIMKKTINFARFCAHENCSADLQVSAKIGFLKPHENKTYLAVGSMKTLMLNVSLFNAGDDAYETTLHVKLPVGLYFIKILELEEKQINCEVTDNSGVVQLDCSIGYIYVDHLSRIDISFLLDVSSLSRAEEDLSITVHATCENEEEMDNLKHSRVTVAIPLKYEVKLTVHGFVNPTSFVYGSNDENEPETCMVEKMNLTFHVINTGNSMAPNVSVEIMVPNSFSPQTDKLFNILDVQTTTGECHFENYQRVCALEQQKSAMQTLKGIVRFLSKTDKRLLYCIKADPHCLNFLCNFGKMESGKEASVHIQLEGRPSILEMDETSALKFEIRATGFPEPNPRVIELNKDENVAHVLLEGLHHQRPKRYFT
T1 sequence (P26010 20-723 limits assumed): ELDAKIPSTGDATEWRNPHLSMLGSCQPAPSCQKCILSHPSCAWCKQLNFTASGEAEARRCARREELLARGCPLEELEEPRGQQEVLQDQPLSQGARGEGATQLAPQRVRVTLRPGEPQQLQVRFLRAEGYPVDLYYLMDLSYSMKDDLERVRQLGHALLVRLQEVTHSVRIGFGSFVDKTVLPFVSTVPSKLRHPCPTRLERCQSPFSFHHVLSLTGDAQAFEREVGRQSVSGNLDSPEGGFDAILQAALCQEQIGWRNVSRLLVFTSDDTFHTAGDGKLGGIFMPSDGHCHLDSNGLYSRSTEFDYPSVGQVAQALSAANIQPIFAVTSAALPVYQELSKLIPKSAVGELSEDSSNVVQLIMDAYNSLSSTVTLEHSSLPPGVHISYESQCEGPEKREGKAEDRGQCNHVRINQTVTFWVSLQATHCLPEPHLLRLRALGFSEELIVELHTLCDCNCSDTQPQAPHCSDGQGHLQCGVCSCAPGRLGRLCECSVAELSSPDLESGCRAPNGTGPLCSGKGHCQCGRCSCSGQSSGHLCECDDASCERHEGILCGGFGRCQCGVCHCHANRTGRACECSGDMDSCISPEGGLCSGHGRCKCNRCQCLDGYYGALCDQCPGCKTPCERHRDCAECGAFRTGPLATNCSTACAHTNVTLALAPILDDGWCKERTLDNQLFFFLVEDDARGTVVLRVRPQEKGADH
The experiment in a line: Fluorescence polarization (FP) assay for α4β7 binding (Example 5). The following applies: competition with fluorescein-labeled peptide, 6.5 nM integrin α4β7, 2 mM manganese chloride; Table 3. As to the method:
Compounds of Formula (I) were evaluated using a fluorescent polarization (FP) assay. FP assays are used to evaluate potency of compounds on purified protein. The FP assays consists of measuring purified integrin αβ heterodimer ecto domains or headpiece binding to surrogate or truncated ligands.
Three in vitro assays were used to examine the α4β7 mechanistic process used by cells: 1) ligand:receptor affinity, 2) the avidity of those interactions on a cell's surface, and 3) how those interactions fare under an imposing force. In Example 5, a Fluorescence Polarization (FP) assay is used to measure compound activity through binding competition with the fluorescein-labeled peptide. In Example 6, the potency of compounds against α4β7 is measured in the cell-based ligand binding assay (LBA), using RPMI 8866 cells incubated with the compound samples in competition with soluble MAdCAM-1 ligand. In Example 7, activity of compounds is evaluated in a cell adhesion assay that mechanistically tests what occurs in vivo when trafficking cells utilize α4β7 to adhere to MAdCAM-1 expressing HEVs of the gut during the extravasation process. In the cell adhesion assay of Example 7, a MAdCAMI1-(Fc) is coated on plastic, and α4β7 expressing cells (RPMI-8866) are allowed to adhere to the coated surface in the presence of the test compounds. Next, the force of washing with buffer is applied to cells thereby testing the strength of that adhesion. Unattached cells are removed and the remaining adherent cells are quantified.
Fluorescence Polarization (FP) assays were used to measure compound activity through binding competition with the fluorescein-labeled peptide […]{Lys(FITC)}. In the assay, 6.5 nM of integrin α4β7 was incubated with the test compound in 2 mM manganese chloride, 0.1 mM calcium chloride, 20 mM HEPES buffer at pH 7.3, 150 mM sodium chloride, 0.01% Triton X-100, 2% DMSO, and 3 nM of the fluorescein-labeled peptide. Running the assays in 384-well plates, the integrin protein was pre-incubated with the test compounds for 15 minutes at 22° C. before the fluorescein-labeled peptide was added. After the fluorescein-labeled peptide was added, the assay was incubated at 22° C. for 1 hour and fluorescence polarization was measured. IC50 values were determined by nonlinear regression, four-parameter curve fitting.
In the case of `Cc1cc(C)c(-c2cc(C)c(F)c([C@H](CC(=O)O)NC(=O)C(CC(C)C)n3cc(CCN(C)C)c(C(F)(F)F)cc3=O)c2)c(C)c1` (single isomer, unassigned) [AC-P2], the IC50 was at most 10 nM.

The compound `Cc1cc(-c2c(C)ccc(F)c2C)cc([C@H](CC(=O)O)NC(=O)C(CC(C)C)n2cc(CCN3CCC3)c(C(F)(F)F)cc2=O)c1F` (single isomer, unassigned) [AF-P2] gave an IC50 of at most 10 nM.

`COc1ccc(C)c(-c2cc(C)c(F)c([C@H](CC(=O)O)NC(=O)C(CC(C)C)n3cc(CCN4CCC4)c(C(F)(F)F)cc3=O)c2)c1C` (single isomer, unassigned) [AG-P2]: the IC50 is at most 10 nM.

For the compound `Cc1cc(-c2c(C)cccc2C)cc([C@H](CC(=O)O)NC(=O)C(CC(C)C)n2cc(CCN3CC[C@@H](F)C3)cc(F)c2=O)c1F` (single isomer, unassigned) [AU-P2], the IC50 is at most 10 nM. As for `Cc1cc(-c2c(C)cccc2C)cc([C@H](CC(=O)O)NC(=O)C(CC(C)C)n2cc(CCN3CC(F)C3)cc(F)c2=O)c1F` (single isomer, unassigned) [AV-P2], the 50% inhibitory concentration (IC50) is at most 10 nM.

In turn, `Cc1cccc(C)c1-c1cc([C@H](CC(=O)O)NC(=O)C(CC(C)C)n2cc(CCN3CCC3)c(C(F)(F)F)cc2=O)c(F)c(C(F)(F)F)c1` (single isomer, unassigned) [G-P2] returned an IC50 of at most 10 nM.

Still in this assay, the particulars now being: competition with fluorescein-labeled peptide, 6.5 nM integrin α4β7, 2 mM manganese chloride; Table 4 comparative compounds.
The compound `Cc1cccc(C)c1-c1cccc([C@H](CC(=O)O)NC(=O)[C@H](CC(C)C)n2cc(CCN(C)C)ccc2=O)c1` returned an IC50 of at most 10 nM. Same read-out and setting: with `Cc1cccc(C)c1-c1cccc([C@H](CC(=O)O)NC(=O)[C@H](CC(C)C)n2ccc(CCN(C)C)cc2=O)c1` the figure was at most 10 nM.

In turn, `Cc1cccc(C)c1-c1cccc([C@H](CC(=O)O)NC(=O)[C@H](CC(C)C)n2cccc(CCN(C)C)c2=O)c1` returned an IC50 of at most 10 nM. As for `Cc1cccc(C)c1-c1cccc([C@H](CC(=O)O)NC(=O)[C@H](CC(C)C)n2cc(CN3CC[C@@H](F)C3)ccc2=O)c1`, the IC50 was at most 10 nM. Compound `Cc1cccc(C)c1-c1cncc([C@H](CC(=O)O)NC(=O)[C@H](CC(C)C)n2ccc(C(F)(F)F)cc2=O)c1` returned an IC50 of at most 10 nM. Same read-out and setting: the same measure for `Cc1ccn([C@@H](CC(C)C)C(=O)N[C@@H](CC(=O)O)c2cncc(-c3c(C)cccc3C)c2)c(=O)c1`: at most 10 nM; for `Cc1cccc(C)c1-c1cncc([C@H](CC(=O)O)NC(=O)C(CC(C)C)n2cc(C(F)(F)F)ccc2=O)c1` (some centres unmarked): at most 10 nM; for `Cc1cccc(C)c1-c1cncc([C@H](CC(=O)O)NC(=O)[C@H](CC(C)C)n2cc(CN3CC(F)C3)ccc2=O)c1`: at most 10 nM. Turning to `Cc1cccc(C)c1-c1cncc([C@H](CC(=O)O)NC(=O)[C@H](CC(C)C)N2CC[C@@H](C(F)(F)F)CC2=O)c1`, the IC50 is at most 10 nM. Take `CC(C)C[C@@H](C(=O)N[C@@H](CC(=O)O)c1ccc(-c2ccc(F)cc2)cc1)n1cc(CCN(C)C)c(C(F)(F)F)cc1=O`: the IC50 is at most 10 nM. Same read-out and setting: with `CC(C)C[C@@H](C(=O)N[C@@H](CC(=O)O)c1ccc(-c2ccc(F)cc2)cc1)n1cc(CCN2CC(F)C2)cc(F)c1=O` the figure was at most 10 nM; with `CC(C)C[C@@H](C(=O)N[C@@H](CC(=O)O)c1ccc(-c2ccccc2)cc1)n1cc(CCN2CC(F)C2)cc(F)c1=O`, at most 10 nM. Still for that read-out and setting: with `Cc1ccccc1-c1cccc([C@H](CC(=O)O)NC(=O)[C@H](CC(C)C)n2cccc(C)c2=O)c1` the figure was at most 10 nM; with `CC(C)C[C@@H](C(=O)N[C@@H](CC(=O)O)c1ccc(-c2ccccc2)cc1)n1cc(CCN(C)C)c(C(F)(F)F)cc1=O`, 10 to 500 nM; with `Cc1ccccc1-c1cc([C@H](CC(=O)O)NC(=O)[C@H](CC(C)C)n2ccccc2=O)ccc1C`, 10 to 500 nM. `Cc1ccccc1-c1cccc([C@H](CC(=O)O)NC(=O)[C@H](CC(C)C)n2ccncc2=O)c1` came in with a half-inhibitory concentration (IC50) of 10 to 500 nM. Same read-out and setting: the same measure for `COc1cccc(F)c1-c1cccc([C@H](CC(=O)O)NC(=O)[C@H](CC(C)C)n2cnc3ccccc3c2=O)c1`: 10 to 500 nM. Consider `Cc1ccccc1-c1cccc([C@H](CC(=O)O)NC(=O)[C@H](CC(C)C)n2ccccc2=O)c1`, for which the IC50 was 10 to 500 nM. In turn, `Cc1ccccc1-c1cc([C@H](CC(=O)O)NC(=O)C(CC(C)C)n2ccccc2=O)ccn1` (some centres unmarked) displayed an IC50 of 10 to 500 nM. As to `COc1ccc([C@H](CC(=O)O)NC(=O)C(CC(C)C)n2ccccc2=O)cc1-c1ccccc1C` (some centres unmarked), the 50% inhibitory concentration (IC50) lay in the range of 10 to 500 nM. Turning to `Cc1ccc([C@@H](C(=O)N[C@@H](CC(=O)O)c2cncc(-c3c(C)cccc3C)c2)N2CC(C)CCC2=O)cc1` (some centres unmarked), the IC50 was at most 10 nM. Still for that read-out and setting: with `Cc1cccc(C)c1-c1cc([C@H](CC(=O)O)NC(=O)[C@H](CC(C)C)n2ccccc2=O)ccn1` the figure was 10 to 500 nM; with `Cc1ccccc1-c1cc([C@H](CC(=O)O)NC(=O)C(CC(C)C)n2ccccc2=O)ccc1C#N` (some centres unmarked), at most 10 nM. Still for that read-out and setting: with `COC[C@@H](C(=O)N[C@@H](CC(=O)O)c1cccc(-c2c(C)cccc2C)c1)n1ccc(C)cc1=O` the figure was 10 to 500 nM; with `Cc1cccc(C)c1-c1cncc([C@H](CC(=O)O)NC(=O)[C@H](CC(C)C)n2ccccc2=O)c1`, at most 10 nM; with `Cc1cccc(C)c1-c1cccc([C@H](CC(=O)O)NC(=O)[C@H](CC(C)C)n2cc(CN3CC(F)C3)ccc2=O)c1` [drawing 572], at most 10 nM. Still for that read-out and setting: the same measure for `Cc1cccc(C)c1-c1cccc([C@H](CC(=O)O)NC(=O)[C@H](CC(C)C)n2cc(CN3CC(F)C3)ccc2=O)c1` [drawing 577]: at most 10 nM; for `Cc1cccc(C)c1-c1cccc([C@H](CC(=O)O)NC(=O)[C@H](CC(C)C)n2cc(CN3CC(F)C3)ccc2=O)c1` [drawing 585]: at most 10 nM; for `Cc1cccc(C)c1-c1cccc([C@H](CC(=O)O)NC(=O)[C@H](CC(C)C)n2cc(CN3CC(F)C3)ccc2=O)c1` [drawing 589]: at most 10 nM.

`Cc1cccc(C)c1-c1cccc([C@H](CC(=O)O)NC(=O)[C@H](CC(C)C)n2cc(CN3CC(F)C3)ccc2=O)c1` [drawing 594] displayed an IC50 of at most 10 nM. Same read-out and setting: with `Cc1cccc(C)c1-c1cccc([C@H](CC(=O)O)NC(=O)[C@H](CC(C)C)n2cc(CN3CC(F)C3)ccc2=O)c1` [drawing 599] the figure was at most 10 nM.

In turn, `Cc1cccc(C)c1-c1cccc([C@H](CC(=O)O)NC(=O)[C@H](CC(C)C)n2cc(CN3CC(F)C3)ccc2=O)c1` [drawing 604] showed an IC50 of at most 10 nM.
